{"source": "patent US7041634B2", "about": "“Method of inhibiting immune system destruction of transplanted viable cells” (Emory University, priority 1995, dated 2006)", "origin": "cited, not measured here", "test_system": "encapsulated hamster islet xenografts in NOD mice", "details": "NOD recipients"}
{"compound": "N=C(N)NCCCCCCC(=O)NC(O)C(=O)NCCCCNCCCN", "note": "(stereo not shown) [deoxyspergualin]", "values": [{"measurement": "prolongation of encapsulated islet xenografts", "result": "significant prolongation"}]}
